Experimental data published in patent US10323038B2, “Pyrazole compounds and methods of making and using same” (ABIDE THERAPEUTICS, INC., priority 2015, dated 2019).

Legend:
MAGL [1] = molecular target: T1, MAGL (Mus musculus (Mouse), UniProt O35678); test: In vitro competitive activity-based protein profiling, MAGL (mouse); format: biochemical; conditions: for inhibition at 1 µM: read-out: MAGL % inh. 1 μM (mouse)
Summary of the method: (§1)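 Competitive ABPP; proteome 1.0 mg/mL total protein; mouse = brain membranes or cell lysates, human = prefrontal cortex or cell membranes. Inhibitor preinc 30 min, 37° C; FP-Rh/HT-01 (50 μM DMSO stock) 30 min, 37° C; SDS-PAGE, in-gel fluorescence of MAGL/FAAH bands.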

FAAH [2] = molecular target: FAAH (Mus musculus (Mouse), UniProt O08914); test: In vitro competitive activity-based protein profiling, FAAH (mouse); format: biochemical; conditions: for inhibition at 1 µM: read-out: FAAH % inh. 1 μM (mouse)
Summary of the method: as §1

MAGL [3] = molecular target: T1, MAGL; test: Mouse brain proteomes from inhibitor treated mice (oral gavage, 4 h), MAGL; format: in vivo; conditions: read-out: MAGL % inh. 5 mg/kg (mouse)
Description: Preparation of Mouse Brain Proteomes from Inhibitor Treated Mice.
Inhibitors were administered to wild-type C57Bl/6J by oral gavage in a vehicle of polyethylene glycol. Each animal was sacrificed 4 h following administration and brain proteomes were prepared and analyzed according to previously established methods (See Niphakis, M. J., et al. (2011) ACS Chem. Neurosci. and Long, J. Z., et al. Nat. Chem. Biol. 5:37-44).

MAGL [4] = molecular target: MAGL (Homo sapiens (Human), UniProt Q99685); test: In vitro competitive activity-based protein profiling, MAGL (human); format: biochemical; conditions: 10 μM, human proteome; read-out: MAGL % inh. 10 μM (human)
Description: (§2) In Vitro Competitive Activity-Based Protein Profiling.
(§3) Proteomes (mouse brain membrane fraction or cell lysates for mouse assays; human prefrontal cortex or cell membrane fractions for human assays) (50 μL, 1.0 mg/mL total protein concentration) were preincubated with varying concentrations of inhibitors at 37° C. After 30 min, FP—Rh or HT-01 (1.0 μL, 50 μM in DMSO) was added and the mixture was incubated for another 30 min at 37° C. Reactions were quenched with SDS loading buffer (15 μL-4×) and run on SDS-PAGE. Following gel imaging, serine hydrolase activity was determined by measuring fluorescent intensity of gel bands corresponding to MAGL and FAAH using ImageJ 1.43u software.

FAAH [5] = molecular target: FAAH (Homo sapiens (Human), UniProt O00519); test: In vitro competitive activity-based protein profiling, FAAH (human); format: biochemical; conditions: 10 μM, human proteome; read-out: FAAH % inh. 10 μM (human)
Description: as §2, §3

Sequence of FAAH (Mus musculus (Mouse), UniProt O08914) (O08914 whole entry): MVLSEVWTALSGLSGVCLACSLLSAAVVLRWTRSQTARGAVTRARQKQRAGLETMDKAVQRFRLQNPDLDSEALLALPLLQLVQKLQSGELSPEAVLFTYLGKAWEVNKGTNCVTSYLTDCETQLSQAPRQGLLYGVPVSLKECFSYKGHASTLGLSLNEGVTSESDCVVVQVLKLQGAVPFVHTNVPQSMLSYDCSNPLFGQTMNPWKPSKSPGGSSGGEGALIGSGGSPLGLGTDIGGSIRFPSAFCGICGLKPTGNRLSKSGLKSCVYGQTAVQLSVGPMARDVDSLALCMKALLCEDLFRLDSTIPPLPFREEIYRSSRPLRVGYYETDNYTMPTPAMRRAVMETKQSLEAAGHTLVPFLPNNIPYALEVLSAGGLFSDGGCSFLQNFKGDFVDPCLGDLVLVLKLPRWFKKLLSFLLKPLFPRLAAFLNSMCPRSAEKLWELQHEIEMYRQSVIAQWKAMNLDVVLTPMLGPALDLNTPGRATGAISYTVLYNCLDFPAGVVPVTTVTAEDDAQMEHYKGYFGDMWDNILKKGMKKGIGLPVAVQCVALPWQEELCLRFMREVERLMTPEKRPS
T1 sequence (O35678 whole entry): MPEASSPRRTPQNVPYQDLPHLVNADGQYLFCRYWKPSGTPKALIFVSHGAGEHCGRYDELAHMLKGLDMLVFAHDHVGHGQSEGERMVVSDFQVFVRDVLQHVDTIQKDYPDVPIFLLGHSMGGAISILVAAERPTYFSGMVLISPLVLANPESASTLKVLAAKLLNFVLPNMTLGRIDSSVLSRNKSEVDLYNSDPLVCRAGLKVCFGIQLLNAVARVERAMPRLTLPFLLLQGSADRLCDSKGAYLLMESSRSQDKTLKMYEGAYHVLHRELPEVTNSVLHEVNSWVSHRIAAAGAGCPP
Sequence of FAAH (Homo sapiens (Human), UniProt O00519) (O00519 whole entry): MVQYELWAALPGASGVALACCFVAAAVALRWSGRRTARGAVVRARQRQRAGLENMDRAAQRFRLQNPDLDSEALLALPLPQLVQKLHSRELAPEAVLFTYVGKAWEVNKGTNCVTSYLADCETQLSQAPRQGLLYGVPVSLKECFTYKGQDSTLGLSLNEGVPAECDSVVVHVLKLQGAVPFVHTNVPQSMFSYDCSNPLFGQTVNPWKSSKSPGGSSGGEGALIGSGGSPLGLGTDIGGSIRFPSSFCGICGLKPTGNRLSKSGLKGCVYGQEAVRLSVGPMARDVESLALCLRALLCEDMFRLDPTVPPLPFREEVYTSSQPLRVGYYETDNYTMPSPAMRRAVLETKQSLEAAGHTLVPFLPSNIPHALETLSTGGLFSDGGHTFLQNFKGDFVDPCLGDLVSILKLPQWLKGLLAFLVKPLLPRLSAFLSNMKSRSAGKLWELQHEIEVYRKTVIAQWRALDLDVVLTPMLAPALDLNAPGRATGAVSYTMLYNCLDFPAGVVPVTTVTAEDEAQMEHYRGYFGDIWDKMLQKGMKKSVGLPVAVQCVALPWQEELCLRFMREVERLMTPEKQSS
Sequence of MAGL (Homo sapiens (Human), UniProt Q99685) (Q99685 whole entry): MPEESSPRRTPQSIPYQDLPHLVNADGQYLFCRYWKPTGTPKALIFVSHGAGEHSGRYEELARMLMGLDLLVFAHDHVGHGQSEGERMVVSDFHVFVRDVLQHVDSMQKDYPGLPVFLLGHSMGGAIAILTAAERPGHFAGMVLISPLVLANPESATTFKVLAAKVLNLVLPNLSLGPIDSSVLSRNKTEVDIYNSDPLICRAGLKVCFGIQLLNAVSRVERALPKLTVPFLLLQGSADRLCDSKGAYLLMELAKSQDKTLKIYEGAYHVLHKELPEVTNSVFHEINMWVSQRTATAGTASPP

SMILES | IC50 (MAGL [1]) [nM] | inhibition at 1 µM (MAGL [1]) [%] | IC50 (FAAH [2]) [nM] | inhibition at 1 µM (FAAH [2]) [%] | inhibition at 5 mg/kg (MAGL [3]) [%] | inhibition at 10 µM (MAGL [4]) [%] | inhibition at 10 µM (FAAH [5]) [%]
CC(=O)N(C)c1cnn(C(=O)N2C[C@H]3C[C@H](N(Cc4ccccc4Cl)C(C)=O)C[C@H]3C2)c1 [Example 172, N-(2-chlorobenzyl)-N-(trans-2-(4-(N-methylacetamido)-1H-pyrazole-1-carbonyl)octahydrocyclopenta[c]pyrrol-5-yl)acetamide] | ≤ 100 | ≥ 75 | 1000 to 10000 | 0 to 25 | 0 to 25 | – | –
CC(=O)N(C)c1cnn(C(=O)N2CC3CN(Cc4ccccc4Cl)CC3C2)c1 (stereo not shown) [Example 9, N-(1-(5-(2-chlorobenzyl)octahydropyrrolo[3,4-c]pyrrole-2-carbonyl)-1H-pyrazol-4-yl)-N-methylacetamide] | 100 to 1000 | ≥ 75 | ≤ 100 | ≥ 75 | 50 to 75 | – | –
CC(=O)N(C)c1cnn(C(=O)N2CC3(CCN(Cc4ccc(-c5ccccc5)cc4C)CC3)C2)c1 [Example 222, N-methyl-N-(1-(7-((3-methyl-[1,1′-biphenyl]-4-yl)methyl)-2,7-diazaspiro[3.5]nonane-2-carbonyl)-1H-pyrazol-4-yl)acetamide] | – | 0 to 25 | – | ≥ 75 | – | ≥ 75 | 50 to 75
CC(=O)N(C)c1cnn(C(=O)N2CCC3(CCN(Cc4ccccc4N4CCCC4)C3)C2)c1 (stereo not shown) [Example 60, N-methyl-N-(1-(7-(2-(pyrrolidin-1-yl)benzyl)-2,7-diazaspiro[4.4]nonane-2-carbonyl)-1H-pyrazol-4-yl)acetamide] | – | 0 to 25 | – | 0 to 25 | – | ≥ 75 | ≥ 75
CC(=O)N(C)c1cnn(C(=O)N2CCC3(CCN(Cc4ccc(N5CCOCC5)cc4)C3)C2)c1 (stereo not shown) [Example 3, N-methyl-N-(1-(7-(4-morpholinobenzyl)-2,7-diazaspiro[4.4]nonane-2-carbonyl)-1H-pyrazol-4-yl)acetamide] | – | 0 to 25 | – | 50 to 75 | – | ≥ 75 | ≥ 75
CC(=O)N(C)c1cnn(C(=O)N2CC3(CCN(Cc4ccccc4C(F)(F)F)CC3)C2)c1 [Example 90, N-methyl-N-(1-(7-(2-(trifluoromethyl)benzyl)-2,7-diazaspiro[3.5]nonane-2-carbonyl)-1H-pyrazol-4-yl)acetamide] | – | 0 to 25 | – | ≥ 75 | – | 25 to 50 | ≥ 75
CC(=O)N(C)c1cnn(C(=O)N2CC3CN(Cc4ccc(Cl)cc4)CC3C2)c1 (stereo not shown) [Example 11, N-(1-(5-(4-chlorobenzyl)octahydropyrrolo[3,4-c]pyrrole-2-carbonyl)-1H-pyrazol-4-yl)-N-methylacetamide] | 100 to 1000 | ≥ 75 | ≤ 100 | ≥ 75 | ≥ 75 | – | –
Cc1cc(-c2ccccc2)ccc1CN1CCN(C(=O)n2cc(NS(C)(=O)=O)cn2)CC1 [Example 219, N-(1-(4-((3-methyl-[1,1′-biphenyl]-4-yl)methyl)piperazine-1-carbonyl)-1H-pyrazol-4-yl)methanesulfonamide] | 1000 to 10000 | ≥ 75 | ≤ 100 | ≥ 75 | ≥ 75 | – | –
CC(=O)N(C)c1cnn(C(=O)N2CCC3(CCN(Cc4ccc(N5CCOCC5)cc4C)C3)C2)c1 (stereo not shown) [Example 5, N-methyl-N-(1-(7-(2-methyl-4-morpholinobenzyl)-2,7-diazaspiro[4.4]nonane-2-carbonyl)-1H-pyrazol-4-yl)acetamide] | – | 0 to 25 | – | 50 to 75 | – | ≥ 75 | ≥ 75
CC(=O)N(C)c1cnn(C(=O)N2CCC3(CCN(Cc4ccc(CN5CCOCC5)cc4)C3)C2)c1 (stereo not shown) [Example 231, N-methyl-N-(1-(7-(4-(morpholinomethyl)benzyl)-2,7-diazaspiro[4.4]nonane-2-carbonyl)-1H-pyrazol-4-yl)acetamide] | – | 0 to 25 | – | 0 to 25 | – | ≥ 75 | 25 to 50
CC(=O)N(C)c1cnn(C(=O)N2CC3CN(Cc4ccc(N5CCOCC5)cc4)CC3C2)c1 (stereo not shown) [Example 15, N-methyl-N-(1-(5-(4-morpholinobenzyl)octahydropyrrolo[3,4-c]pyrrole-2-carbonyl)-1H-pyrazol-4-yl)acetamide] | – | 0 to 25 | – | 25 to 50 | – | ≥ 75 | ≥ 75
CC(=O)N(C)c1cnn(C(=O)N2CCC3(CCN(Cc4ccccc4N4CCOCC4)C3)C2)c1 (stereo not shown) [Example 62, N-methyl-N-(1-(7-(2-morpholinobenzyl)-2,7-diazaspiro[4.4]nonane-2-carbonyl)-1H-pyrazol-4-yl)acetamide] | – | 0 to 25 | – | 0 to 25 | – | 25 to 50 | ≥ 75
CC(=O)N(C)c1cnn(C(=O)N2CC3(CCN(Cc4ccc(N5CCOCC5)cc4)CC3)C2)c1 [Example 21, N-methyl-N-(1-(7-(4-morpholinobenzyl)-2,7-diazaspiro[3.5]nonane-2-carbonyl)-1H-pyrazol-4-yl)acetamide] | – | 0 to 25 | – | 25 to 50 | – | 0 to 25 | ≥ 75
CC(=O)N(C)c1cnn(C(=O)N2CC3CN(Cc4ccc(CN5CCOCC5)cc4)CC3C2)c1 (stereo not shown) [Example 225, N-methyl-N-(1-(5-(4-(morpholinomethyl)benzyl)octahydropyrrolo[3,4-c]pyrrole-2-carbonyl)-1H-pyrazol-4-yl)acetamide] | – | 0 to 25 | – | 25 to 50 | – | ≥ 75 | ≥ 75

Results, then the compound that gave them:

IC50 (MAGL [1]) [nM] | inhibition at 1 µM (MAGL [1]) [%] | IC50 (FAAH [2]) [nM] | inhibition at 1 µM (FAAH [2]) [%] | inhibition at 5 mg/kg (MAGL [3]) [%] | inhibition at 10 µM (MAGL [4]) [%] | inhibition at 10 µM (FAAH [5]) [%] | SMILES
100 to 1000 | ≥ 75 | ≤ 100 | ≥ 75 | 25 to 50 | – | – | CC(=O)N(C)c1cnn(C(=O)N2CCC3(CCN(Cc4cccc(Oc5ccccc5)c4)C3)C2)c1 (stereo not shown) [Example 236, N-methyl-N-(1-(7-(3-phenoxybenzyl)-2,7-diazaspiro[4.4]nonane-2-carbonyl)-1H-pyrazol-4-yl)acetamide]
100 to 1000 | ≥ 75 | ≤ 100 | ≥ 75 | ≥ 75 | – | – | CC(=O)N(C)c1cnn(C(=O)N2CCC3(CCN(Cc4ccccc4C(F)(F)F)C3)C2)c1 (stereo not shown) [Example 58, N-methyl-N-(1-(7-(2-(trifluoromethyl)benzyl)-2,7-diazaspiro[4.4]nonane-2-carbonyl)-1H-pyrazol-4-yl)acetamide]
– | 0 to 25 | – | 50 to 75 | – | ≥ 75 | ≥ 75 | CC(=O)N(C)c1cnn(C(=O)N2CCC3(CCN(Cc4cccc(C)c4)C3)C2)c1 (stereo not shown) [Example 80, N-methyl-N-(1-(7-(3-methylbenzyl)-2,7-diazaspiro[4.4]nonane-2-carbonyl)-1H-pyrazol-4-yl)acetamide]
– | 0 to 25 | – | 50 to 75 | – | ≥ 75 | ≥ 75 | COc1cccc(CN2CCC3(CCN(C(=O)n4cc(N(C)C(C)=O)cn4)C3)C2)c1 (stereo not shown) [Example 81, N-(1-(7-(3-methoxybenzyl)-2,7-diazaspiro[4.4]nonane-2-carbonyl)-1H-pyrazol-4-yl)-N-methylacetamide]
– | 0 to 25 | – | 0 to 25 | – | ≥ 75 | ≥ 75 | COc1ccccc1CN1CCC2(CCN(C(=O)n3cc(N(C)C(C)=O)cn3)C2)C1 (stereo not shown) [Example 56, N-(1-(7-(2-methoxybenzyl)-2,7-diazaspiro[4.4]nonane-2-carbonyl)-1H-pyrazol-4-yl)-N-methylacetamide]
– | 0 to 25 | – | ≥ 75 | – | ≥ 75 | ≥ 75 | CC(=O)N(C)c1cnn(C(=O)N2CCC3(CCN(Cc4ccccc4F)C3)C2)c1 (stereo not shown) [Example 52, N-(1-(7-(2-fluorobenzyl)-2,7-diazaspiro[4.4]nonane-2-carbonyl)-1H-pyrazol-4-yl)-N-methylacetamide]
– | 0 to 25 | – | 25 to 50 | – | ≥ 75 | ≥ 75 | CC(=O)N(C)c1cnn(C(=O)N2CCC3(CCN(Cc4cccc(N5CCOCC5)c4)C3)C2)c1 (stereo not shown) [Example 48, N-methyl-N-(1-(7-(3-morpholinobenzyl)-2,7-diazaspiro[4.4]nonane-2-carbonyl)-1H-pyrazol-4-yl)acetamide]
– | 0 to 25 | – | ≥ 75 | – | ≥ 75 | ≥ 75 | CC(=O)N(C)c1cnn(C(=O)N2CCC3(CCN(Cc4cccc(F)c4)C3)C2)c1 (stereo not shown) [Example 79, N-(1-(7-(3-fluorobenzyl)-2,7-diazaspiro[4.4]nonane-2-carbonyl)-1H-pyrazol-4-yl)-N-methylacetamide]
